In patent US7208270B2, “Method for diagnosing a person having multiple sclerosis” (priority 2001, dated 2007):
“Also recorded” adds a separate entry of the source.

Key:
[1] = test system: SARG-1 over-expressing PC12 cells; experiment: Viability of SARG-1 over-expressing PC12 cultures treated with kinase inhibitors; assay type: cell-based, rat; conditions: staurosporine at 100 nM, in comparison to vector control cultures
Excerpt: (§1) To examine the expression and function of SARG-1 in a neural cell culture system, standard molecular biology techniques (Sanbrook et al, 1989) were used to clone the rat SARG-1 coding sequence (rSARG-1479) into the pIRESII-EGFP eukaryotic expression vector (Clontech) under the control of a CMV promoter which bicistroni-cally translates through an internal IRES sequence both SARG-1477 and enhanced green fluorescent protein. The rat pheochromocytoma PC12 cell line was maintained in DMEM supplemented with 8% horse serum, 8% fetal calf serum and an antibiotic-antimycotic mix containing 100 units/ml penicillin, 100 μg/ml streptomycin, and 0.25 μg/ml amphotericin B (all from GibcoBRL) in a fully humidified air atmosphere containing 5% CO2 at 37° C. Semi-confluent cultures in 6-well plates were transfected with pIRES2-EGFP-SARG-1 or empty vector for 18 h in the presence of the uptake enhancing cationic lipid mix pFx1 (Invitrogen) at a 6:1 lipid to DNA ratio in serum-free opti-MEN (Gibco). Stable transfectant colonies were picked from separate wells after selection in […] geneticin (Gibco) and clones with similar EGFP fluorescence expanded from independent transfections.
(§2) Over-expression of SARG-1 also enhances terminal differentiation of PC12 cells induced by nerve growth factor (FIG. 14).

[2] = test system: SARG-1 over-expressing PC12 cells; experiment: Flow cytometrical cell cycle analysis of transfected PC12 cells; assay type: cell-based, rat; conditions: 100 nM, 24 h, ethanol fixed cells
Excerpt: as §2

[3] = test system: PC12 cells transfected with empty vector; experiment: Vector control PC12 cultures treated with staurosporine; assay type: cell-based, rat; conditions: 100 nM
Excerpt: as §1, §2

PC12 cells = conditions: cited from earlier work

| Compound | effect on viability / cell death [1] | flow cytometry: sub G0/G1 peak / loss of DNA characteristic of apoptosis [2] | effect on vector control cultures [3] | concentration inducing apoptosis (PC12 cells; Fu et al, 1999) | concentration inducing neurite outgrowth (PC12 cells; Hashimoto and Hagino, 1989) [nM] |
| --- | --- | --- | --- | --- | --- |
| CN[C@@H]1C[C@H]2O[C@@](C)([C@@H]1OC)n1c3ccccc3c3c4c(c5c6ccccc6n2c5c31)C(=O)NC4 [staurosporine] | rapid loss in viability | sub G0/G1 peak characteristic for the induction of apoptosis is seen only in SARG-1 over-expressing cells; also recorded: loss of DNA from ethanol fixed cells | neurite outgrowth | above 1 mM | 100 |
| COc1cccc(-c2cc(=O)c3ccccc3o2)c1N [PD 98059] | No similar effects |  |  |  |  |
| COC(=O)[C@@]1(O)C[C@H]2O[C@]1(C)n1c3ccccc3c3c4c(c5c6ccccc6n2c5c31)C(=O)NC4 [X252a] | No similar effects |  |  |  |  |
| CN(C)CCCn1cc(C2=C(c3c[nH]c4ccccc34)C(=O)NC2=O)c2ccccc21 [Bisindolylmaleimide I] | No similar effects |  |  |  |  |
